Literature values as cited in paper PMC3616063, “Genomic and Structural Characterization of Kunitz-Type Peptide LmKTT-1a Highlights Diversity and Evolution of Scorpion Potassium Channel Toxins” (PLoS ONE, 2013).

Tests used:
Herg channels = conditions: ref [11]
Excerpt: (§1) Over the last 400 million years, scorpions have evolved many peptide toxins that target different potassium channels. Numerous potassium channel toxins have been isolated from scorpions including those identified by proteomic and transcriptome analysis of scorpion venom glands [2]–[4]. These toxins are divided into α-KTx, β-KTx, γ-KTx, and κ-KTx subfamilies based on their similarity, [6]. Some of the toxins are specific inhibitors that serve as useful pharmacological tools and candidate drugs that target various potassium channels. Examples include charybdotoxin (ChTX), ...

Kv1.3 = conditions: ref [8]
Excerpt: as §1

BKCa channels = conditions: ref [8]
Excerpt: as §1

IKCa channels = conditions: ref [10]
Excerpt: as §1

SKCa channels = conditions: ref [9]
Excerpt: as §1

In the case of “BeKm-1: scorpion toxin which inhibits Herg channels (RPTDIKCSESYQCFPVCKSRFGKTNGRCVNGFCDCF; UniProt Q9BKB7 22-57, looked up)”, the Herg channel inhibition (Herg channels) is given as “inhibits Herg channels”.
For charybdotoxin [charybdotoxin (ChTX)], the Kv1.3 channel targeting (Kv1.3) is listed as “targeted toward Kv1.3” and the BKCa channel targeting (BKCa channels) is listed as “targeted toward Kv1.3 and BKCa channels”.
In the case of “maurotoxin (VSCTGSKDCYAPCRKQTGCPNAKCINKSCKCYGC; UniProt P80719 1-34, looked up) [maurotoxin (MTX)]”, the IKCa channel targeting (IKCa channels) is listed as “targeted toward IKCa channels”.
For “scyllatoxin (AFCNLRMCQLSCRSLGLLGKCIGDKCECVKH; UniProt P16341 1-31, looked up) [scyllatoxin (ScyTx)]”, the SKCa channel inhibition (SKCa channels) is listed as “inhibits SKCa channels”.
